We go through 4 compounds from article PMC11173529, “Structure–Activity Relationship Studies in a Series of Xanthine Inhibitors of SLACK Potassium Channels” (Molecules, 2024).

The target of the test is T1, GIRK 1/2 (Homo sapiens, UniProt P48051+P48549).
T1 construct: expressed in transfected cells; host or cells: HEK293
T1 sequence (P48549 1-501): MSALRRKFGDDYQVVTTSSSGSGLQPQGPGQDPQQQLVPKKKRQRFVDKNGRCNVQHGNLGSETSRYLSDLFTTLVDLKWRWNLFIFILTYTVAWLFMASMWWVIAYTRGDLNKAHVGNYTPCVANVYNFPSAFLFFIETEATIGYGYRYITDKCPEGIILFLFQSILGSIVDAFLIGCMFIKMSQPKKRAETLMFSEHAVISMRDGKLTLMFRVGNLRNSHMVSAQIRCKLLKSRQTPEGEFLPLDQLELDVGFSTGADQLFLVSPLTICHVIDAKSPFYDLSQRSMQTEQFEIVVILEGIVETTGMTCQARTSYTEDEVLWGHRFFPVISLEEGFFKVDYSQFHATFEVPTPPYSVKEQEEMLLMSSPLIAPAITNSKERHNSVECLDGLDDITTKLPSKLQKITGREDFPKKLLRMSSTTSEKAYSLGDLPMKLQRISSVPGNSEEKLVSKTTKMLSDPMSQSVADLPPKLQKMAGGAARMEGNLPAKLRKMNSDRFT
T1 sequence (P48051 1-423): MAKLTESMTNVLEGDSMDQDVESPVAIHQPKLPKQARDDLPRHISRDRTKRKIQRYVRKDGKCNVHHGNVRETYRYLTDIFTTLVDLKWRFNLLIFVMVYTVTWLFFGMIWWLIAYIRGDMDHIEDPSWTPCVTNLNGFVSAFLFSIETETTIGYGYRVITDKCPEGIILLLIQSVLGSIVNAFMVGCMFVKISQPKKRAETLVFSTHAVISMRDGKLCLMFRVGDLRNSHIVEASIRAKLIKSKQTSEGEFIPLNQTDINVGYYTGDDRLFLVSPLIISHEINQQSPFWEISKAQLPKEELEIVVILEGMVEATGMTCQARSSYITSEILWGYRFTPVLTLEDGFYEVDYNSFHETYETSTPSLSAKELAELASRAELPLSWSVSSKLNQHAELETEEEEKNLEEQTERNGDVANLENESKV
The test is described as follows: Tl+-flux selectivity panel in HEK-293 cells: GIRK 1/2. It is filed as cell-based. As to conditions: HEK293, 10 µM test compound, relative to control SCH23390, read-out: Percent Inhibition ± SEM. How it is done:
With a handful of analogs that offered improved SLACK potency relative to hit compound 8, we next proceeded to investigate the ancillary pharmacology of such compounds, both with respect to other Slo family members as well as versus a spectrum of diverse ion channels (Table 5). Thus, we screened four compounds (32, 48, 70, and 71) at 10 µM in our in-house selectivity panel of Tl^+-flux assays in HEK-293 cells stably expressing the target of interest. […] Some valuable SAR was noted as well. […] Reduction of inhibition at Maxi-K α1/β4 also followed. This SAR will be important to bear in mind for continued optimization within this series. […] Of particular note is the lack of significant hERG activity in this series, as activity versus that counter-target has been an issue with other SLACK inhibitors.
Stably transfected monoclonal HEK293 cell lines expressing Slick, Maxi-K α1/β3, Maxi-K α1/β4, CaV3.2, GIRK 1/2, KV2.1, KV7.2, NaV1.7, and TASK-1 were generated as previously described. Stably transfected monoclonal HEK293 cell lines expressing hERG were generated as previously described. CHO-K1 cells expressing human Slack and disease-associated human Slack mutations, G288S and A934T, were generated by transfecting a PiggyBac TRE mammalian expression vector (VectorBuilder, Chicago, IL, USA) containing KCNT1. FuGENE 6 (Promega, Madison, WI, USA) transfection reagent and protocol, together with Opti-MEM (Thermo Fisher Scientific, Walkham, MA, USA), were utilized.
The Tl^+ flux assays were conducted as previously described with modifications optimized for individual cell lines as described below. Following removal of cell culture media, cells were loaded with Tl^+-sensitive dye loading solution containing Thallos-AM (ION Biosciences, San Marcos, TX, USA), 1.25 mM Probenecid, and 0.3% Pluronic F-127 (MilliporeSigma, Burlington, MA, USA), in assay buffer comprised of Hanks Balanced Salt Solution (HBSS) (Thermo Fisher Scientific, Waltham, MA, USA) and 20 mM HEPES (Corning, Corning, NY, USA) at room temperature for one-hour. Dye loading solution was replaced with 20 μL/well of assay buffer prior to assaying. Cell plates were then loaded onto a Panoptic kinetic imaging plate reader (WaveFront Biosciences, Franklin, TN, USA). Data were acquired at 5 Hz (excitation 482 ± 35 nm, emission 536 ± 40 nm) for 10 s, at which time 20 μL/well of test compounds in assay buffer at 2-fold above the desired final concentration was added and allowed to incubate for 120 s. Next, 10 μL/well of Tl^+ stimulus buffer (129 mM Na gluconate, 1.2 mM CaSO4, 1 MgSO4, 1 mM Na2HPO4, 4.17 mM NaHCO3, 5.56 mM glucose, 2.5 mM Tl2SO4, and 10 mM HEPES pH 7.3) was added. Imaging was concluded after an additional 120 s.
Usually inhibition stands for the share of the control response that was lost under treatment. As to `CN(Cc1cccc(F)c1)c1nc2c(c(=O)n(Cc3ccccc3)c(=O)n2C)n1C` [Analog 48], the inhibition at 10 µM is 32 ± 3%.
`CCCCN(Cc1ccccc1)c1nc2c(c(=O)n(Cc3ccccc3)c(=O)n2C)n1C` [Analog 70]: the inhibition at 10 µM turned out to be 9.2 ± 1.4%.
On to `Cn1c(N(Cc2ccccc2)CC2CC2)nc2c1c(=O)n(Cc1ccccc1)c(=O)n2C` [Analog 71], for which the inhibition at 10 µM came to 12 ± 0.5%.
Then `COc1cccc(Cn2c(=O)c3c(nc(N(C)Cc4ccccc4)n3C)n(C)c2=O)c1` [Analog 32], with 19 ± 1.7%.
